In patent US12421278B2, “Immunomodulators” (Bristol-Myers Squibb Company, priority 2020, dated 2025):
Starred links: 1 amine or outer side, 2 acyl side, 3 side chain; linkers in the order of their positions; H or OH if unused. Positions of bridges follow the written chain, without caps; N, C: chain ends. Non-standard residues stand in square brackets, D forms with d. Residues, ends and D or L forms follow the SMILES beside them. Trp(1-CH2CO2Me) = COC(=O)Cn1cc(C[C@H](N)C(=O)O)c2ccccc21; Trp(1-CH2COOH) = N[C@@H](Cc1cn(CC(=O)O)c2ccccc12)C(=O)O; X4 = O=C(O)c1cc(NC(=S)[*:1])cc(NC(=S)[*:2])c1; X2 = O=C([C@H](CCNCC=[*:3])N[*:1])[*:2]; X1 = O=C([C@H](CNCC=[*:3])N[*:1])[*:2]; X3 = O=C(NCCCCCCNC(=O)[*:2])[*:1]; Hyp = O=C(O)[C@@H]1C[C@@H](O)CN1; Oxalyl = O=C(C(=O)[*:2])[*:1]; NMeNle = CCCC[C@H](NC)C(=O)O; NEtAla = CCN[C@@H](C)C(=O)O; NMeA = CN[C@@H](C)C(=O)O; Dab = NCC[C@H](N)C(=O)O; Dap = NC[C@H](N)C(=O)O

Molecular target: T1, PD-1/PD-L1 (Homo sapiens, UniProt Q9NZQ7)
T1 construct: TVMV protease site (C); made in house; host or cells: HEK293T cells
T1 sequence (Q9NZQ7 18-239): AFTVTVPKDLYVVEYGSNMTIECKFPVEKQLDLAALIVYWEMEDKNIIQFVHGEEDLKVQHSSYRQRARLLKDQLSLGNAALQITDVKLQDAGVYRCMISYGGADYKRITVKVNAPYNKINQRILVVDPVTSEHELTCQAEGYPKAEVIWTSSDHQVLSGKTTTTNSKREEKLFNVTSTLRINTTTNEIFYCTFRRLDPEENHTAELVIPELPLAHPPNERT
Test: PD-1/PD-L1 Homogenous Time-Resolved Fluorescence (HTRF) binding assay
Settings: PD-L1-His 10 nM final, PD-1-Ig 20 nM final
Excerpt: The ability of the compounds of formula (I) to bind to PD-L1 was investigated using a PD-1/PD-L1 Homogenous Time-Resolved Fluorescence (HTRF) binding assay.
Homogenous Time-Resolved Fluorescence (HTRF) Binding Assay
The interaction of PD-1 and PD-L1 can be assessed using soluble, purified preparations of the extracellular domains of the two proteins. The PD-1 and PD-L1 protein extracellular domains were expressed as fusion proteins with detection tags, for PD-1, the tag was the Fc portion of Immunoglobulin (PD-1-Ig) and for PD-L1 it was the 6 histidine motif (PD-L1-His). All binding studies were performed in an HTRF assay buffer consisting of dPBS supplemented with 0.1% […] bovine serum albumin and 0.05% (v/v) Tween-20. For the h/PD-L1-His binding assay, inhibitors were pre-incubated with PD-L1-His (10 nM final) for 15 m in 4 μl of assay buffer, followed by addition of PD-1-Ig (20 nM final) in 1 μl of assay buffer and further incubation for 15 m. HTRF detection was achieved using europium crypate-labeled anti-Ig (1 nM final) and allophycocyanin (APC) labeled anti-His (20 nM final). Antibodies were diluted in HTRF detection buffer and 5 μl was dispensed on top of the binding reaction. The reaction mixture was allowed to equilibrate for 30 minutes and the resulting signal (665 nm/620 nm ratio) was obtained using an EnVision fluorometer. Additional binding assays were established between the human proteins PD-1-Ig/PD-L2-His (20 & 5 nM, respectively) and CD80-His/PD-L1-Ig (100 & 10 nM, respectively).
Recombinant Proteins: Human PD-1 (25-167) with a C-terminal human Fc domain of immunoglobulin G (Ig) epitope tag [hPD-1 (25-167)-3S-IG] and human PD-L1 (18-239) with a C-terminal His epitope tag [hPD-L1(18-239)-TVMV-His] were expressed in HEK293T cells and purified sequentially by ProteinA affinity chromatography and size exclusion chromatography. Human PD-L2-His and CD80-His was obtained through commercial sources.
Table 1 lists the IC50 values for representative examples of this disclosure measured in the PD-1/PD-L1 Homogenous Time-Resolved Fluorescence (HTRF) binding assay.

Row | SMILES | IC50 [nM]
1 | CCCC[C@H]1C(=O)N(C)[C@@H](CCCC)C(=O)N[C@@H](CC(C)C)C(=O)N[C@H](C(=O)NCC(N)=O)CSCC(=O)N[C@@H](Cc2ccc(O)cc2)C(=O)N(C)[C@@H](C)C(=O)N[C@@H](CC(N)=O)C(=O)N2CCC[C@H]2C(=O)N[C@H]2CNC(=O)NCCCCCCNC(=O)NCC[C@H](NC(=O)[C@H](Cc3c[nH]c4ccccc34)NC(=O)[C@@H]3C[C@@H](O)CN3C(=O)[C@H](CC(C)C)NC2=O)C(=O)N[C@@H](Cc2cn(CC(=O)O)c3ccccc23)C(=O)N1C [Example 1001] ({CH2CO}-Y[NMeA]NP[Dap]L[Hyp]W[Dab][Trp(1-CH2COOH)][NMeNle][NMeNle]LCG-NH2; linker 5-9 via X3; thioether N-14) | 4
2 | CCCC[C@H]1C(=O)N(C)[C@@H](CCCC)C(=O)N[C@@H](CC(C)C)C(=O)N[C@H](C(=O)NCC(N)=O)CSCC(=O)N[C@@H](Cc2ccc(O)cc2)C(=O)N(C)[C@H]2CN3CC[C@H](NC(=O)[C@H](Cc4c[nH]c5ccccc45)NC(=O)[C@@H]4C[C@@H](O)CN4C(=O)[C@H](CC(C)C)NC(=O)[C@H](CNc4c3c(=O)c4=O)NC(=O)[C@@H]3CCCN3C(=O)[C@H](CC(N)=O)NC2=O)C(=O)N[C@@H](Cc2cn(CC(=O)O)c3ccccc23)C(=O)N1C [Example 1002] | 210
3 | CCCC[C@H]1C(=O)N(C)[C@@H](CCCC)C(=O)N[C@@H](CC(C)C)C(=O)N[C@H](C(=O)NCC(N)=O)CSCC(=O)N[C@@H](Cc2ccc(O)cc2)C(=O)N(C)[C@@H](C)C(=O)N[C@@H](CC(N)=O)C(=O)N2CCC[C@H]2C(=O)N[C@H]2CNC(=O)C(=O)NCC[C@H](NC(=O)[C@H](Cc3c[nH]c4ccccc34)NC(=O)[C@@H]3C[C@@H](O)CN3C(=O)[C@H](CC(C)C)NC2=O)C(=O)N[C@@H](Cc2cn(CC(=O)OC)c3ccccc23)C(=O)N1C [Example 1003] ({CH2CO}-Y[NMeA]NP[Dap]L[Hyp]W[Dab][Trp(1-CH2CO2Me)][NMeNle][NMeNle]LCG-NH2; linker 5-9 via Oxalyl; thioether N-14) | 120
4 | CCCC[C@H]1C(=O)N(C)[C@@H](CCCC)C(=O)N[C@@H](CC(C)C)C(=O)N[C@H](C(=O)NCC(N)=O)CSCC(=O)N[C@@H](Cc2ccc(O)cc2)C(=O)N(C)[C@@H](C)C(=O)N[C@@H](CC(N)=O)C(=O)N2CCC[C@H]2C(=O)N[C@H]2CNCC(O)COCC(O)CNCC[C@H](NC(=O)[C@H](Cc3c[nH]c4ccccc34)NC(=O)[C@@H]3C[C@@H](O)CN3C(=O)[C@H](CC(C)C)NC2=O)C(=O)N[C@@H](Cc2cn(CC(=O)O)c3ccccc23)C(=O)N1C (stereo partly drawn) [Example 1004] | 11
5 | CCCC[C@H]1C(=O)N(C)[C@@H](CCCC)C(=O)N[C@@H](CC(C)C)C(=O)N[C@H](C(=O)NCC(N)=O)CSCC(=O)N[C@@H](Cc2ccc(O)cc2)C(=O)N(C)[C@@H](C)C(=O)N[C@@H](CC(N)=O)C(=O)N(CC)[C@@H](C)C(=O)N[C@H]2CNC/C=C\CNCC[C@H](NC(=O)[C@H](Cc3c[nH]c4ccccc34)NC(=O)[C@@H]3C[C@@H](O)CN3C(=O)[C@H](CC(C)C)NC2=O)C(=O)N[C@@H](Cc2cn(CC(=O)O)c3ccccc23)C(=O)N1C [Example 1005] ({CH2CO}-Y[NMeA]N[NEtAla][X1]L[Hyp]W[X2][Trp(1-CH2COOH)][NMeNle][NMeNle]LCG-NH2; staple (Z) 5-9; thioether N-14) | 8.3
6 | CCCC[C@H]1C(=O)N(C)[C@@H](CCCC)C(=O)N[C@@H](CC(C)C)C(=O)N[C@H](C(=O)NCC(N)=O)CSCC(=O)N[C@@H](Cc2ccc(O)cc2)C(=O)N(C)[C@@H](C)C(=O)N[C@@H](CC(N)=O)C(=O)N2CCC[C@H]2C(=O)N[C@H]2CNC(=S)Nc3cc(cc(C(=O)O)c3)NC(=S)NCC[C@H](NC(=O)[C@H](Cc3c[nH]c4ccccc34)NC(=O)[C@@H]3C[C@@H](O)CN3C(=O)[C@H](CC(C)C)NC2=O)C(=O)N[C@@H](Cc2cn(CC(=O)O)c3ccccc23)C(=O)N1C [Example 1007] ({CH2CO}-Y[NMeA]NP[Dap]L[Hyp]W[Dab][Trp(1-CH2COOH)][NMeNle][NMeNle]LCG-NH2; linker 5-9 via X4; thioether N-14) | 78
